Consider two compounds from paper PMC5562236, “Properties of Two Novel Esterases Identified from Culture Supernatant of Penicillium purpurogenum Grown on Sugar Beet Pulp” (Insights in enzyme research, 2016).

The assay deals with T1, FAET.
T1 construct: full-length cDNA (introns removed) with own signal peptide in pPICZB, stop codon kept, no tag seen; secreted by Pichia pastoris GS115, culture supernatant, no purification described
Description: pNP release at […] nm, microplate, recombinant P. pastoris culture supernatant. Type of assay: biochemical, Talaromyces purpureogenus. The note with it: 100 mM sodium phosphate pH 5.8, 28 °C (general pNP assay).

By Km is commonly meant the concentration of substrate that gives half-maximal velocity. Regarding `CC(=O)Oc1ccc([N+](=O)[O-])cc1` [pNP-acetate], the Km stood at 2.3 mM.
With `COc1cc(/C=C/C(=O)Oc2ccc([N+](=O)[O-])cc2)ccc1O` [pNP-ferulate] the figure was 1.4 mM.
